# Assay results taken from patent US20080096967A1, “Formulations for Injection of Catecholic Butanes, Including Ndga Compounds, Into Animals” (priority 2005, published 2008).
# Test system: HeLa, an HPV-18 positive human cervical cancer cell line
# Test: Cell proliferation and cell death, trypan blue exclusion, HeLa cells
# Type: cell-based
# Protocol: M4N in 10% (w/v) HP-β-CD and 25% (v/v) PEG 300 (hereafter, the “CPE formulation”), M4N in 30% (w/v) HP-β-CD and 25% (v/v) PEG 300 (hereafter, the “CPE 25/30 formulation”) and M4N in 27% (w/v) HP-β-CD and 33% (v/v) PEG 300 (hereafter, the “CPE 33/27 formulation”) was tested for their effects on cell death and proliferation on two different tumor cell lines: HeLa, an HPV-18 positive human cervical cancer cell line, and C-33A, an HPV-negative human cervical cancer cell line M4N in DMSO was also tested in parallel. Both tumor cell lines were treated with increasing amounts of M4N: 0 μM, 20 μM, 40 μM, 60 μM and 80 μM, for 72 hr with the DMSO or the CPE formulation. Each formulation was added to total 1% of the growth media (Minimal Essential Medium with L-glutamine supplemented with 10% fetal bovine serum, 1 mM sodium pyruvate, 1× non-essential amino acid solution, and 1,000 IU/mL penicillin/1,000 μg/mL streptomycin solution). Control cells were grown under the same conditions and were left untreated. After 72 hr of treatment or no treatment, the total number of cells and the number of live cells in each sample were counted, using the trypan blue exclusion method. The cell proliferation rate and the percentage of dead cells in each sample were analyzed. Results of this experiment are shown in FIG. 1, FIG. 2, and Tables 6 through 12.
# FIG. 1 is a graphical representation of the ratio of the number of treated cells/number of untreated cells plotted against increasing concentrations of M4N in either the DMSO formulation or the CPE formulation for treatment of the C-33A cells and HeLa cells. FIG. 2 is a graphical representation of the percentage of dead cells plotted against increasing concentrations of M4N and in either DMSO formulation or the CPE formulation for treatment of the two cancer cell lines, C-33A and HeLa cells in culture.
# Various lots of M4N were tested to show the effectiveness of the drug of different lots. HeLa cells were treated with increasing amounts of M4N: 0 μM, 20 μM, 40 μM, 60 μM and 80 μM, for 72 hr with the CPE formulation. Each formulation was added to total 1% of the growth media (Minimal Essential Medium with L-glutamine supplemented with 10% fetal bovine serum, 1 mM sodium pyruvate, 1× non-essential amino acid solution, and 1,000 IU/mL penicillin/1,000 μg/mL streptomycin solution). Control cells were grown under the same conditions and were left untreated. After 72 hr of treatment or no treatment, the total number of cells and the number of live cells in each sample were counted, using the trypan blue exclusion method. The cell proliferation rate and the percentage of dead cells in each sample were analyzed.
# [1] = M4N 60 μM in CPE formulation, 72 hr, at 9 months
# [2] = M4N 60 μM in CPE formulation, 72 hr, at 12 months
# [3] = M4N 60 μM in CPE formulation, 72 hr, comparison with CPE 25/30
# [4] = M4N 60 μM in CPE formulation, 72 hr, time 0
# [5] = M4N 60 μM in CPE formulation, 72 hr, time zero, comparison with CPE 33/27
# [6] = M4N 60 μM in DMSO, 72 hr, at 9 months
# [7] = M4N 60 μM in DMSO, 72 hr, at 12 months
# [8] = M4N 60 μM in DMSO, 72 hr, time 0
# [9] = M4N 80 μM in CPE 25/30 formulation, 72 hr
# [10] = M4N 80 μM in CPE 25/30 formulation, 72 hr, at 3 months
# [11] = M4N 80 μM in CPE 33/27 formulation, 72 hr, time zero
# [12] = M4N 80 μM in CPE formulation, 72 hr, at 3 months
# [13] = M4N 80 μM in CPE formulation, 72 hr, at 9 months
# [14] = M4N 80 μM in CPE formulation, 72 hr, at 12 months
# [15] = M4N 80 μM in CPE formulation, 72 hr, comparison with CPE 25/30
# [16] = M4N 80 μM in CPE formulation, 72 hr, time 0
# [17] = M4N 80 μM in CPE formulation, 72 hr, time zero, comparison with CPE 33/27
# [18] = M4N 80 μM in DMSO, 72 hr, at 9 months
# [19] = M4N 80 μM in DMSO, 72 hr, at 12 months
# [20] = M4N 80 μM in DMSO, 72 hr, time 0
# [21] = M4N lot EM1001, 20 μM in CPE formulation, 72 hr
# [22] = M4N lot EM1001, 40 μM in CPE formulation, 72 hr
# [23] = M4N lot EM1001, 60 μM in CPE formulation, 72 hr
# [24] = M4N lot EM1001, 80 μM in CPE formulation, 72 hr
# [25] = M4N lot EM1002, 20 μM in CPE formulation, 72 hr
# [26] = M4N lot EM1002, 40 μM in CPE formulation, 72 hr
# [27] = M4N lot EM1002, 60 μM in CPE formulation, 72 hr
# [28] = M4N lot EM1002, 80 μM in CPE formulation, 72 hr
structure (smiles),measurement,setting,value
"COc1ccc(C[C@@H](C)[C@@H](C)Cc2ccc(OC)c(OC)c2)cc1OC [Formulation M4N, meso-1,4-bis(3,4-dimethoxyphenyl)-2,3-dimethylbutane]",Proliferation Rate,"M4N 60 μM in CPE formulation, 72 hr, at 3 months",0.03
same,% Dead Cells,[1],13.6%
same,% Viability,[1],86.4%
same,Proliferation Rate,[1],0.09
same,% Dead Cells,[2],25.0%
same,% Viability,[2],75.0%
same,Proliferation Rate,[2],0.05
same,% Dead Cells,[3],55.6%
same,% Viability,[3],44.5%
same,Proliferation Rate,[3],0.03
same,% Dead Cells,[4],19.6%
same,% Viability,[4],80.4%
same,Proliferation Rate,[4],0.13
same,% Dead Cells,[5],26.2%
same,% Viability,[5],73.9%
same,Proliferation Rate,[5],0.10
same,% Dead Cells,[6],32.5%
same,% Viability,[6],67.5%
same,Proliferation Rate,[6],0.03
same,% Dead Cells,[7],35.4%
same,% Viability,[7],64.6%
same,Proliferation Rate,[7],0.04
same,% Dead Cells,[8],36.1%
same,% Viability,[8],63.9%
same,Proliferation Rate,[8],0.13
same,% Dead Cells,[9],45.2%
same,% Viability,[9],54.8%
same,Proliferation Rate,[9],0.07
same,% Dead Cells,[10],35.6%
same,% Viability,[10],64.4%
same,Proliferation Rate,[10],0.04
same,% Dead Cells,[11],25.0%
same,% Viability,[11],75.0%
same,Proliferation Rate,[11],0.09
same,% Dead Cells,[12],29.0%
same,% Viability,[12],71.0%
same,Proliferation Rate,[12],0.03
same,% Dead Cells,[13],11.9%
same,% Viability,[13],88.1%
same,Proliferation Rate,[13],0.08
same,% Dead Cells,[14],47.2%
same,% Viability,[14],52.8%
same,Proliferation Rate,[14],0.03
same,% Dead Cells,[15],56.7%
same,% Viability,[15],43.4%
same,Proliferation Rate,[15],0.04
same,% Dead Cells,[16],21.5%
same,% Viability,[16],78.5%
same,Proliferation Rate,[16],0.13
same,% Dead Cells,[17],21.6%
same,% Viability,[17],78.4%
same,Proliferation Rate,[17],0.11
same,% Dead Cells,[18],50.0%
same,% Viability,[18],50.0%
same,Proliferation Rate,[18],0.02
same,% Dead Cells,[19],23.6%
same,% Viability,[19],76.5%
same,Proliferation Rate,[19],0.15
same,% Dead Cells,[20],38.6%
same,% Viability,[20],61.4%
same,Proliferation Rate,[20],0.02
same,Cell proliferation rate,M4N in DMSO or CPE formulation vs non-M4N-treated controls in the same formulation,reduced
same,% Dead Cells,[21],5.1%
same,% Viability,[21],94.9%
same,Proliferation Rate,[21],0.25
same,% Dead Cells,[22],26.3%
same,% Viability,[22],73.7%
same,Proliferation Rate,[22],0.10
same,% Dead Cells,[23],55.6%
same,% Viability,[23],44.4%
same,Proliferation Rate,[23],0.01
same,% Dead Cells,[24],40.2%
same,% Viability,[24],59.8%
same,Proliferation Rate,[24],0.01
same,% Dead Cells,[25],12.0%
same,% Viability,[25],88.0%
same,Proliferation Rate,[25],0.32
same,% Dead Cells,[26],25.8%
same,% Viability,[26],74.2%
same,Proliferation Rate,[26],0.11
same,% Dead Cells,[27],58.1%
same,% Viability,[27],41.9%
same,Proliferation Rate,[27],0.05
same,% Dead Cells,[28],59.7%
same,% Viability,[28],40.3%
same,Proliferation Rate,[28],0.03
same,IC50,"read-out: M4N sufficient to cause about a 50% inhibition in cell proliferation, CPE formulation, 72 hr",~20 µM
